Experimental data taken from patent US11267811B2, “Small molecule inhibitors of galectin-3” (BRISTOL-MYERS SQUIBB COMPANY, priority 2017, dated 2022).

Molecular target: His-tagged recombinant human Gal-3 (hGal-3) (Homo sapiens (Human), UniProt P17931)
Assay: Gal-3 HTRF assay (His-tagged hGal-3 binding to B-ASF);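 also: compounds preincubated 30 min with hGal-3, then 1 h with B-ASF, detection via terbium anti-His antibody and streptavidin d2. Control with B-ASF counts as full signal, omitting B-ASF as background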
Conditions: HTRF, hGal-3 15 nM, B-ASF 15 nM; read-out: hGal-3 IC50

Sequence of His-tagged recombinant human Gal-3 (hGal-3) (P17931 whole entry): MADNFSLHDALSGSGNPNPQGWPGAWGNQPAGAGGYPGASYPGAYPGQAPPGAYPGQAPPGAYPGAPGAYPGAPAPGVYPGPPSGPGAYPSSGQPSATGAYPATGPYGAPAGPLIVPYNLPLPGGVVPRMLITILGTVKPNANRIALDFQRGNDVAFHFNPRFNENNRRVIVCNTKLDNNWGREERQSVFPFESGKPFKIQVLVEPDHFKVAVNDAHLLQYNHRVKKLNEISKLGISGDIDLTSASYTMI

Compound | IC50
OC[C@H]1O[C@@H](c2nncn2-c2ccccc2OC(F)(F)F)[C@H](O)[C@@H](n2cc(-c3cc(F)c(F)c(F)c3)nn2)[C@H]1O [Example 102] | 300 nM
CC(C)Oc1ccc(-n2cnnc2[C@@H]2O[C@H](CO)[C@H](O)[C@H](n3cc(-c4cc(F)c(F)c(F)c4)nn3)[C@H]2O)cc1 [Example 103] | 700 nM
OC[C@H]1O[C@@H](c2nncn2-c2ccc(Oc3ccccc3)cc2)[C@H](O)[C@@H](n2cc(-c3cc(F)c(F)c(F)c3)nn2)[C@H]1O [Example 104] | 820 nM
CC(C)Oc1cccc(-n2cnnc2[C@@H]2O[C@H](CO)[C@H](O)[C@H](n3cc(-c4cc(F)c(F)c(F)c4)nn3)[C@H]2O)c1 [Example 105] | 330 nM
O=S(=O)(Nc1nccs1)c1ccc(-n2cnnc2[C@@H]2O[C@H](CO)[C@H](O)[C@H](n3cc(-c4cc(F)c(F)c(F)c4)nn3)[C@H]2O)cc1 [Example 106] | 760 nM
OC[C@H]1O[C@@H](c2nncn2-c2ccc3ncccc3c2)[C@H](O)[C@@H](n2cc(-c3cc(F)c(F)c(F)c3)nn2)[C@H]1O [Example 107] | 50 nM
OC[C@H]1O[C@@H](c2nncn2-c2cccc(OCc3ccccc3)c2)[C@H](O)[C@@H](n2cc(-c3cc(F)c(F)c(F)c3)nn2)[C@H]1O [Example 108] | 370 nM
OC[C@H]1O[C@@H](c2nncn2-c2ccc(-n3cccc3)cc2)[C@H](O)[C@@H](n2cc(-c3cc(F)c(F)c(F)c3)nn2)[C@H]1O [Example 109] | 520 nM
Cc1nnc(NS(=O)(=O)c2ccc(-n3cnnc3[C@@H]3O[C@H](CO)[C@H](O)[C@H](n4cc(-c5cc(F)c(F)c(F)c5)nn4)[C@H]3O)cc2)s1 [Example 110] | 1550 nM
OC[C@H]1O[C@@H](c2nncn2-c2ccc(-c3nnn[nH]3)cc2)[C@H](O)[C@@H](n2cc(-c3cc(F)c(F)c(F)c3)nn2)[C@H]1O [Example 111] | 820 nM
OC[C@H]1O[C@@H](c2nncn2-c2cccc(-c3nnn[nH]3)c2)[C@H](O)[C@@H](n2cc(-c3cc(F)c(F)c(F)c3)nn2)[C@H]1O [Example 112] | 640 nM
CS(=O)(=O)Nc1cccc(-n2cnnc2[C@@H]2O[C@H](CO)[C@H](O)[C@H](n3cc(-c4cc(F)c(F)c(F)c4)nn3)[C@H]2O)c1 [Example 113] | 480 nM
CNS(=O)(=O)Cc1ccc(-n2cnnc2[C@@H]2O[C@H](CO)[C@H](O)[C@H](n3cc(-c4cc(F)c(F)c(F)c4)nn3)[C@H]2O)cc1 [Example 114] | 260 nM
CN(C)S(=O)(=O)c1ccc(-n2cnnc2[C@@H]2O[C@H](CO)[C@H](O)[C@H](n3cc(-c4cc(F)c(F)c(F)c4)nn3)[C@H]2O)cc1 [Example 115] | 11100 nM
NS(=O)(=O)c1ccc(-n2cnnc2[C@@H]2O[C@H](CO)[C@H](O)[C@H](n3cc(-c4cc(F)c(F)c(F)c4)nn3)[C@H]2O)cc1 [Example 116] | 670 nM
OC[C@H]1O[C@@H](c2nncn2-c2ccc(-n3ccnc3)cc2)[C@H](O)[C@@H](n2cc(-c3cc(F)c(F)c(F)c3)nn2)[C@H]1O [Example 117] | 1460 nM
OC[C@H]1O[C@@H](c2nncn2-c2cc(Cl)cc(C(F)(F)F)c2)[C@H](O)[C@@H](n2cc(-c3cc(F)c(F)c(F)c3)nn2)[C@H]1O [Example 118] | 160 nM
OC[C@H]1O[C@@H](c2nncn2Cc2ccc(Cl)c(Cl)c2)[C@H](O)[C@@H](n2cc(-c3cc(F)c(F)c(F)c3)nn2)[C@H]1O [Example 119] | 2790 nM
OC[C@H]1O[C@@H](c2nncn2-c2ccc3ncsc3c2)[C@H](O)[C@@H](n2cc(-c3cc(F)c(F)c(F)c3)nn2)[C@H]1O [Example 120] | 30 nM
O=C1CCc2cc(-n3cnnc3[C@@H]3O[C@H](CO)[C@H](O)[C@H](n4cc(-c5cc(F)c(F)c(F)c5)nn4)[C@H]3O)ccc2N1 [Example 121] | 260 nM
OC[C@H]1O[C@@H](c2nncn2-c2cnc3ccccc3c2)[C@H](O)[C@@H](n2cc(-c3cc(F)c(F)c(F)c3)nn2)[C@H]1O [Example 123] | 100 nM
OC[C@H]1O[C@@H](c2nncn2-c2ccc3nccnc3c2)[C@H](O)[C@@H](n2cc(-c3cc(F)c(F)c(F)c3)nn2)[C@H]1O [Example 124] | 400 nM
OC[C@H]1O[C@@H](c2nncn2-c2ccc3ccncc3c2)[C@H](O)[C@@H](n2cc(-c3cc(F)c(F)c(F)c3)nn2)[C@H]1O [Example 126] | 270 nM
OC[C@H]1O[C@@H](c2nncn2Cc2cccs2)[C@H](O)[C@@H](n2cc(-c3cc(F)c(F)c(F)c3)nn2)[C@H]1O [Example 127] | 1280 nM
CS(=O)(=O)c1cccc(-n2cnnc2[C@@H]2O[C@H](CO)[C@H](O)[C@H](n3cc(-c4cc(F)c(F)c(F)c4)nn3)[C@H]2O)c1 [Example 128] | 310 nM
CS(=O)(=O)c1cc(-n2cnnc2[C@@H]2O[C@H](CO)[C@H](O)[C@H](n3cc(-c4cc(F)c(F)c(F)c4)nn3)[C@H]2O)ccc1F [Example 129] | 600 nM
OC[C@H]1O[C@@H](c2nncn2Cc2nc3ccccc3s2)[C@H](O)[C@@H](n2cc(-c3cc(F)c(F)c(F)c3)nn2)[C@H]1O [Example 130] | 320 nM

Compound | IC50
OC[C@H]1O[C@@H](c2nncn2-c2ccc(Cl)c(Cl)c2)[C@H](O)[C@@H](n2cc(-c3cc(F)c(F)c(F)c3)nn2)[C@H]1O [Example 131, (2S,3R,4R,5R,6R)-2-(4-(3,4-dichlorophenyl)-4H-1,2,4-triazol-3-yl)-6-(hydroxymethyl)-4-(4-(3,4,5-trifluorophenyl)-1H-1,2,3-triazol-1-yl)tetrahydro-2H-pyran-3,5-diol] | 100 nM
Cc1nc2ccc(-n3cnnc3[C@@H]3O[C@H](CO)[C@H](O)[C@H](n4cc(-c5cc(F)c(F)c(F)c5)nn4)[C@H]3O)cc2s1 [Example 132] | 20 nM
COc1cc(-n2cnnc2[C@@H]2O[C@H](CO)[C@H](O)[C@H](n3cc(-c4cc(F)c(F)c(F)c4)nn3)[C@H]2O)ccn1 [Example 133] | 200 nM
COc1cccc(-n2cnnc2[C@@H]2O[C@H](CO)[C@H](O)[C@H](n3cc(-c4cc(F)c(F)c(F)c4)nn3)[C@H]2O)n1 [Example 134] | 570 nM
OC[C@H]1O[C@@H](c2nncn2-c2cc(Cl)ccc2Cl)[C@H](O)[C@@H](n2cc(-c3cc(F)c(F)c(F)c3)nn2)[C@H]1O [Example 135] | 30 nM
Cn1c(=O)sc2cc(-n3cnnc3[C@@H]3O[C@H](CO)[C@H](O)[C@H](n4cc(-c5cc(F)c(F)c(F)c5)nn4)[C@H]3O)ccc21 [Example 136] | 310 nM
Cc1nc2cc(F)c(-n3cnnc3[C@@H]3O[C@H](CO)[C@H](O)[C@H](n4cc(-c5cc(F)c(F)c(F)c5)nn4)[C@H]3O)cc2s1 [Example 137] | 80 nM
Cc1ncc(Cl)cc1-n1cnnc1[C@@H]1O[C@H](CO)[C@H](O)[C@H](n2cc(-c3cc(F)c(F)c(F)c3)nn2)[C@H]1O [Example 138] | 40 nM
Cc1nc2cccc(-n3cnnc3[C@@H]3O[C@H](CO)[C@H](O)[C@H](n4cc(-c5cc(F)c(F)c(F)c5)nn4)[C@H]3O)c2s1 [Example 139] | 260 nM
OC[C@H]1O[C@@H](c2nncn2-c2cc(F)cc(Cl)c2)[C@H](O)[C@@H](n2cc(-c3cc(F)c(F)c(F)c3)nn2)[C@H]1O [Example 140] | 130 nM
OC[C@H]1O[C@@H](c2nncn2-c2ccc(N3CCNCC3)c(Cl)c2)[C@H](O)[C@@H](n2cc(-c3cc(F)c(F)c(F)c3)nn2)[C@H]1O [Example 141, (2S,3R,4R,5R,6R)-2-(4-(3-chloro-4-(piperazin-1-yl)phenyl)-4H-1,2,4-triazol-3-yl)-6-(hydroxymethyl)-4-(4-(3,4,5-trifluorophenyl)-1H-1,2,3-triazol-1-yl)tetrahydro-2H-pyran-3,5-diol] | 130 nM
Cc1nc2cc(-n3cnnc3[C@@H]3O[C@H](CO)[C@H](O)[C@H](n4cc(-c5cc(F)c(F)c(F)c5)nn4)[C@H]3O)ccc2s1 [Example 143] | 410 nM
COc1ccc(-n2cnnc2[C@@H]2O[C@H](CO)[C@H](O)[C@H](n3cc(-c4cc(F)c(F)c(F)c4)nn3)[C@H]2O)cc1Cl [Example 145] | 230 nM
CSc1cccc(-n2cnnc2[C@@H]2O[C@H](CO)[C@H](O)[C@H](n3cc(-c4cc(F)c(F)c(F)c4)nn3)[C@H]2O)c1 [Example 146] | 50 nM
CSc1cc(Cl)cc(-n2cnnc2[C@@H]2O[C@H](CO)[C@H](O)[C@H](n3cc(-c4cc(F)c(F)c(F)c4)nn3)[C@H]2O)c1 [Example 147] | 60 nM
Cc1nc2c(Cl)cc(-n3cnnc3[C@@H]3O[C@H](CO)[C@H](O)[C@H](n4cc(-c5cc(F)c(F)c(F)c5)nn4)[C@H]3O)cc2s1 [Example 148] | 80 nM
COc1cccc(-n2cnnc2[C@@H]2O[C@H](CO)[C@H](O)[C@H](n3cc(-c4cc(F)c(F)c(F)c4)nn3)[C@H]2O)c1 [Example 152] | 160 nM
N#Cc1cccc(-n2cnnc2[C@@H]2O[C@H](CO)[C@H](O)[C@H](n3cc(-c4cc(F)c(F)c(F)c4)nn3)[C@H]2O)c1 [Example 153] | 140 nM
OC[C@H]1O[C@@H](c2nncn2-c2cccc(F)c2)[C@H](O)[C@@H](n2cc(-c3cc(F)c(F)c(F)c3)nn2)[C@H]1O [Example 154] | 80 nM
Cc1cccc(-n2cnnc2[C@@H]2O[C@H](CO)[C@H](O)[C@H](n3cc(-c4cc(F)c(F)c(F)c4)nn3)[C@H]2O)c1 [Example 155] | 150 nM
OC[C@H]1O[C@@H](c2nncn2-c2ccc(F)c(Cl)c2)[C@H](O)[C@@H](n2cc(-c3cc(F)c(F)c(F)c3)nn2)[C@H]1O [Example 156] | 50 nM
OC[C@H]1O[C@@H](c2nncn2Cc2nccs2)[C@H](O)[C@@H](n2cc(-c3cc(F)c(F)c(F)c3)nn2)[C@H]1O [Example 158] | 2150 nM
CC(=O)Nc1ccc(-n2cnnc2[C@@H]2O[C@H](CO)[C@H](O)[C@H](n3cc(-c4cc(F)c(F)c(F)c4)nn3)[C@H]2O)cc1O [Example 159] | 840 nM
Cc1nc2ccc(-n3cnnc3[C@@H]3O[C@H](CO)[C@H](O)[C@H](n4cc(-c5cc(F)c(F)c(F)c5)nn4)[C@H]3O)cc2[nH]1 [Example 160] | 330 nM
COC(=O)c1cc2ccc(-n3cnnc3[C@@H]3O[C@H](CO)[C@H](O)[C@H](n4cc(-c5cc(F)c(F)c(F)c5)nn4)[C@H]3O)cc2s1 [Example 163] | 220 nM
OC[C@H]1O[C@@H](c2nncn2-c2ccc3cn[nH]c3c2)[C@H](O)[C@@H](n2cc(-c3cc(F)c(F)c(F)c3)nn2)[C@H]1O [Example 164] | 630 nM
